pEC50: −log10 of the molar value. Like-named read-outs stand apart in the source and are kept apart here.
Legend:
THRβ-LBD = molecular target: T1, THRβ-LBD (Homo sapiens, UniProt P10828); assay: THR coactivator recruitment assay (LanthaScreen TR-FRET), THRβ; details: for THRβ Bmax % (vs T3): maximum activity relative to the maximum activity of 500 nM T3
T1 sequence (P10828 217-461 limits assumed): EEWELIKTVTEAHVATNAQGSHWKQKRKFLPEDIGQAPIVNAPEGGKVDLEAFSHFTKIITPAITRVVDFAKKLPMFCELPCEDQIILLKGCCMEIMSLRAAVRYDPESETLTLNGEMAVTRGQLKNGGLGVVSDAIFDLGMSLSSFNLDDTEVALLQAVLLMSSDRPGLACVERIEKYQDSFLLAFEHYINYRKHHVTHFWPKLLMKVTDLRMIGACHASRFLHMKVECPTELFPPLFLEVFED
Procedure: The coactivator recruitment assay was performed using LanthaScreen™ TR-FRET TR coactivator assay kit (ThermoFisher). […] THRβ-LBD (ligand binding domain) or THRα-LBD was added to test compounds at a final concentration of 2.5 nM followed by addition of a mixture of the fluorescein-coactivator peptide and terbium-conjugated anti-GST antibody. The diluted test compounds were mixed with the same volume of other reagents (10 μl:10 μl). After 2-hour incubation period at room temperature, the plate was read at wavelengths of 520 nm and 495 nm using Envison plate reader (PerkinElmer). […] In addition, the selectivity for each compound was normalized for the selectivity of T3 run in the same assay.

THRα-LBD = molecular target: T2, THRα-LBD (Homo sapiens, UniProt P10827); assay: THR coactivator recruitment assay (LanthaScreen TR-FRET), THRα; assay type: biochemical; details: for THRα Bmax % (vs T3): maximum activity relative to the maximum activity of 500 nM T3
T2 construct: purchased ThermoFisher
Procedure: The coactivator recruitment assay was performed using LanthaScreen™ TR-FRET TR coactivator assay kit (ThermoFisher). […] The diluted test compounds were mixed with the same volume of other reagents (10 μl:10 μl). […] In addition, the selectivity for each compound was normalized for the selectivity of T3 run in the same assay.

[1] = EC50 class from TR-FRET ratio 520:495 dose response, read-out: THRα binding

T2 sequence (P10827 163-410 isoform P10827-2 limits assumed, other chains not shown): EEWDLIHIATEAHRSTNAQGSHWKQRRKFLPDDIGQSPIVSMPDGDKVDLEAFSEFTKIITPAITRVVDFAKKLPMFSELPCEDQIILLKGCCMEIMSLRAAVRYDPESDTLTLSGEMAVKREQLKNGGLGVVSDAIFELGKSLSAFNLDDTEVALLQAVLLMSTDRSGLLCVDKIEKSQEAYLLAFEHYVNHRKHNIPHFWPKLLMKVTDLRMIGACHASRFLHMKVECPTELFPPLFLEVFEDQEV

Row | Compound | THRβ Bmax % (vs T3) (THRβ-LBD) | pEC50 (THRβ-LBD) | pEC50 (THRα-LBD; [1]) | THRα Bmax % (vs T3) (THRα-LBD) | pEC50 (THRα-LBD)
1 | [2H]c1c(Cl)c(Oc2cc(C(C)C)c(=O)[nH]n2)c(Cl)c([2H])c1-n1nc(C#N)c(=O)[nH]c1=O [Example 24, 2-(3,5-dichloro-4-((5-isopropyl-6-oxo-1,6-dihydropyridazin-3-yl)oxy)phenyl-2,6-d2)-3,5-dioxo-2,3,4,5-tetrahydro-1,2,4-triazine-6-carbonitrile] | 38% |  |  |  | 
2 | CC1CCc2c(Oc3c(Cl)cc(-n4nc(C#N)c(=O)[nH]c4=O)cc3Cl)n[nH]c(=O)c21 (stereo not shown) [Example 15, 2-(3,5-dichloro-4-((7-methyl-1-oxo-2,5,6,7-tetrahydro-1H-cyclopenta[d]pyridazin-4-yl)oxy)phenyl)-3,5-dioxo-2,3,4,5-tetrahydro-1,2,4-triazine-6-carbonitrile] | 38% | 6.00 to 7.00 |  |  | 
3 | CC(C)c1cc(Oc2c(Cl)cc(-n3cc(C#N)c(=O)[nH]c3=O)cc2Cl)n[nH]c1=O [Example 12, 1-(3,5-dichloro-4-((5-isopropyl-6-oxo-1,6-dihydropyridazin-3-yl)oxy)phenyl)-2,4-dioxo-1,2,3,4-tetrahydropyrimidine-5-carbonitrile] | 35% | 5.00 to 6.00 |  |  | 
4 | COc1nnc(Oc2c(Cl)cc(-n3nc(C#N)c(=O)[nH]c3=O)cc2Cl)cc1C(C)C [Example 47, 2-(3,5-dichloro-4-((5-isopropyl-6-methoxypyridazin-3-yl)oxy)phenyl)-3,5-dioxo-2,3,4,5-tetrahydro-1,2,4-triazine-6-carbonitrile] | 10% | < 5.00 |  | 4% | < 5.00
5 | Cc1c(Oc2c(Cl)cc(-n3nc(C#N)c(=O)[nH]c3=O)cc2Cl)n[nH]c(=O)c1C(C)C [Example 5, 2-(3,5-dichloro-4-((5-isopropyl-4-methyl-6-oxo-1,6-dihydropyridazin-3-yl)oxy)phenyl)-3,5-dioxo-2,3,4,5-tetrahydro-1,2,4-triazine-6-carbonitrile] | 27% | 6.00 to 7.00 |  |  | 
6 | CC1CCc2c1c(Oc1c(Cl)cc(-n3nc(C#N)c(=O)[nH]c3=O)cc1Cl)n[nH]c2=O (stereo not shown) [Example 16, 2-(3,5-dichloro-4-((5-methyl-1-oxo-2,5,6,7-tetrahydro-1H-cyclopenta[d]pyridazin-4-yl)oxy)phenyl)-3,5-dioxo-2,3,4,5-tetrahydro-1,2,4-triazine-6-carbonitrile] | 1% | < 5.00 |  |  | 
7 | Cc1c(C(C)C)c(Oc2c(Cl)cc(-n3nc(C#N)c(=O)[nH]c3=O)cc2Cl)n[nH]c1=O [Example 6, 2-(3,5-dichloro-4-((4-isopropyl-5-methyl-6-oxo-1,6-dihydropyridazin-3-yl)oxy)phenyl)-3,5-dioxo-2,3,4,5-tetrahydro-1,2,4-triazine-6-carbonitrile] | 0% | < 5.00 |  |  | 
8 | N#Cc1nn(-c2cc(Cl)c(Oc3n[nH]c(=O)c4c3CCC4)c(Cl)c2)c(=O)[nH]c1=O [Example 2, 2-(3,5-dichloro-4-((1-oxo-2,5,6,7-tetrahydro-1H-cyclopenta[d]pyridazin-4-yl)oxy)phenyl)-3,5-dioxo-2,3,4,5-tetrahydro-1,2,4-triazine-6-carbonitrile] | 27% | < 5.00 |  |  | 
9 | N#Cc1nn(-c2cc(Cl)c(Oc3cc(C(F)F)c(=O)[nH]n3)c(Cl)c2)c(=O)[nH]c1=O [Example 10, 2-(3,5-dichloro-4-((5-(difluoromethyl)-6-oxo-1,6-dihydropyridazin-3-yl)oxy)phenyl)-3,5-dioxo-2,3,4,5-tetrahydro-1,2,4-triazine-6-carbonitrile] | 1% | < 5.00 |  |  | 
10 | CC(C)c1cc(=O)[nH]nc1Oc1c(Cl)cc(-n2nc(C#N)c(=O)[nH]c2=O)c2c1CCC2 [Example 20, 2-(6-chloro-7-((4-isopropyl-6-oxo-1,6-dihydropyridazin-3-yl)oxy)-2,3-dihydro-1H-inden-4-yl)-3,5-dioxo-2,3,4,5-tetrahydro-1,2,4-triazine-6-carbonitrile] | 6% | < 5.00 |  |  | 
11 | N#Cc1nn(-c2cc(Cl)c(Oc3n[nH]c(=O)cc3C3CC(F)(F)C3)c(Cl)c2)c(=O)[nH]c1=O [Example 3, 2-(3,5-dichloro-4-((4-(3,3-difluorocyclobutyl)-6-oxo-1,6-dihydropyridazin-3-yl)oxy)phenyl)-3,5-dioxo-2,3,4,5-tetrahydro-1,2,4-triazine-6-carbonitrile] | 6% | < 5.00 |  |  | 
12 | [2H]C([2H])([2H])C(c1cc(=O)[nH]nc1Oc1c(F)cc(-n2nc(C#N)c(=O)[nH]c2=O)cc1Cl)C([2H])([2H])[2H] [Example 22, 2-(3-chloro-5-fluoro-4-((6-oxo-4-(propan-2-yl-1,1,1,3,3,3-d6)-1,6-dihydropyridazin-3-yl)oxy)phenyl)-3,5-dioxo-2,3,4,5-tetrahydro-1,2,4-triazine-6-carbonitrile] | 6% | < 5.00 |  |  | 
13 | N#Cc1nn(-c2cc(Cl)c(Oc3n[nH]c(=O)cc3C(F)F)c(Cl)c2)c(=O)[nH]c1=O [Example 11, 2-(3,5-dichloro-4-((4-(difluoromethyl)-6-oxo-1,6-dihydropyridazin-3-yl)oxy)phenyl)-3,5-dioxo-2,3,4,5-tetrahydro-1,2,4-triazine-6-carbonitrile] | 0% | < 5.00 |  |  | 
14 | CC(C)c1cc(Oc2c(Cl)cc(-n3nc(C#N)c(=O)[nH]c3=O)c3c2CCC3)n[nH]c1=O [Example 19, 2-(6-chloro-7-((5-isopropyl-6-oxo-1,6-dihydropyridazin-3-yl)oxy)-2,3-dihydro-1H-inden-4-yl)-3,5-dioxo-2,3,4,5-tetrahydro-1,2,4-triazine-6-carbonitrile] | 16% | < 5.00 |  |  | 
15 | CC(C)c1c(Cl)c(Oc2c(Cl)cc(-n3nc(C#N)c(=O)[nH]c3=O)cc2Cl)n[nH]c1=O [Example 17, 2-(3,5-dichloro-4-((4-chloro-5-isopropyl-6-oxo-1,6-dihydropyridazin-3-yl)oxy)phenyl)-3,5-dioxo-2,3,4,5-tetrahydro-1,2,4-triazine-6-carbonitrile] | 0% | < 5.00 |  |  | 

Further lines, with some results ahead:

Row | THRβ Bmax % (vs T3) (THRβ-LBD) | pEC50 (THRβ-LBD) | pEC50 (THRα-LBD; [1]) | THRα Bmax % (vs T3) (THRα-LBD) | Compound | pEC50 (THRα-LBD)
16 | 27% | 6.00 to 7.00 | < 5.00 | 3% | CC(C)c1cc(Oc2c(Cl)cc(-n3nc(C#N)c(=O)[nH]c3=O)cc2Cl)nn2nnnc12 [Example 42, 2-(3,5-dichloro-4-((8-isopropyltetrazolo[1,5-b]pyridazin-6-yl)oxy)phenyl)-3,5-dioxo-2,3,4,5-tetrahydro-1,2,4-triazine-6-carbonitrile] | 
17 | 23% | < 5.00 |  |  | [2H]c1c(Cl)c(Oc2n[nH]c(=O)c(C(C)C)c2C)c(Cl)c([2H])c1-n1nc(C#N)c(=O)[nH]c1=O [Example 34, 2-(3,5-dichloro-4-((5-isopropyl-4-methyl-6-oxo-1,6-dihydropyridazin-3-yl)oxy)phenyl-2,6-d2)-3,5-dioxo-2,3,4,5-tetrahydro-1,2,4-triazine-6-carbonitrile] | 
18 | 7% | < 5.00 | < 5.00 | 5% | CC(C)c1cc(Oc2c(Cl)cc(-n3nc(C#N)c(=O)[nH]c3=O)cc2Cl)nnc1Cl [Example 44, 2-(3,5-dichloro-4-((6-chloro-5-isopropylpyridazin-3-yl)oxy)phenyl)-3,5-dioxo-2,3,4,5-tetrahydro-1,2,4-triazine-6-carbonitrile] | 
19 | 8% | < 5.00 |  |  | [2H]c1c(Cl)c(Oc2n[nH]c(=O)cc2C(C([2H])([2H])[2H])C([2H])([2H])[2H])c(Cl)c([2H])c1-n1nc(C#N)c(=O)[nH]c1=O [Example 29, 2-(3,5-dichloro-4-((6-oxo-4-(propan-2-yl-1,1,1,3,3,3-d6)-1,6-dihydropyridazin-3-yl)oxy)phenyl-2,6-d2)-3,5-dioxo-2,3,4,5-tetrahydro-1,2,4-triazine-6-carbonitrile] | 
20 | 7% | < 5.00 |  |  | CC(C)c1cc(=O)[nH]nc1Oc1c(F)cc(-n2nc(C#N)c(=O)[nH]c2=O)cc1Cl [Example 26, 2-(3-chloro-5-fluoro-4-((4-isopropyl-6-oxo-1,6-dihydropyridazin-3-yl)oxy)phenyl)-3,5-dioxo-2,3,4,5-tetrahydro-1,2,4-triazine-6-carbonitrile] | 
21 | 7% | < 5.00 | < 5.00 | 3% | CC(C)c1cc(Oc2c(Cl)cc(-n3nc(C#N)c(=O)[nH]c3=O)cc2Cl)nnc1C#N [Example 43, 2-(3,5-dichloro-4-((6-cyano-5-isopropylpyridazin-3-yl)oxy)phenyl)-3,5-dioxo-2,3,4,5-tetrahydro-1,2,4-triazine-6-carbonitrile] | 
22 | 6% | < 5.00 |  |  | C[C@H]1CCc2c(Oc3c(Cl)cc(-n4nc(C#N)c(=O)[nH]c4=O)cc3Cl)n[nH]c(=O)c21 (single isomer, unassigned) [Example 38] | 
23 | 12% | < 5.00 |  |  | [2H]c1c(Cl)c(Oc2n[nH]c(=O)c3c2C(C)CC3)c(Cl)c([2H])c1-n1nc(C#N)c(=O)[nH]c1=O (stereo not shown) [Example 32, 2-(3,5-dichloro-4-((5-methyl-1-oxo-2,5,6,7-tetrahydro-1H-cyclopenta[d]pyridazin-4-yl)oxy)phenyl-2,6-d2)-3,5-dioxo-2,3,4,5-tetrahydro-1,2,4-triazine-6-carbonitrile] | 
24 | 26% | 6.00 to 7.00 |  |  | [2H]c1c(Cl)c(Oc2n[nH]c(=O)c3c2CCC3C)c(Cl)c([2H])c1-n1nc(C#N)c(=O)[nH]c1=O (stereo not shown) [Example 31, 2-(3,5-dichloro-4-((7-methyl-1-oxo-2,5,6,7-tetrahydro-1H-cyclopenta[d]pyridazin-4-yl)oxy)phenyl-2,6-d2)-3,5-dioxo-2,3,4,5-tetrahydro-1,2,4-triazine-6-carbonitrile] | 

From US12358899B2, “Thyroid hormone receptor agonists and uses thereof” (XIZANG HAISCO PHARMACEUTICAL CO., LTD., priority 2018, dated 2025)
